The subject of series [1] is RS4; 11 cells. Briefly: Test 2: inhibition of cell proliferation, RS4;11. It counts as cell-based. The following applies: for IC50: Homo sapiens, 168 h, RS4;11 cells, 7 days, PrestoBlue cell viability; for cell proliferation inhibition activity, good (in words) / cell proliferation inhibitory activity, potent (in words): summary of Test 2 table, RS4;11 and MOLM-13. How it is done: (§1) Test 2: Test for Evaluating the Inhibition of Cell Proliferation
(§2) RS4; 11 cells were obtained from American Type Culture Collection (ATCC). The cells were cultured at 37° C. in the presence of 5% CO2 in RPMI 1640 medium containing 10% fetal bovine serum and 1% penicillin/streptomycin. MOLM-13 cells were separately obtained from DSMZ (Deutsche Sammlung von Mikroorganismen und Zellkulturen GmbH). The cells were cultured at 37° C. in the presence of 5% CO2 in RPMI 1640 medium containing […] and 1% penicillin/streptomycin.
(§3) The cells were plated to a 96-well plate in 2000 cells/well, each test compound was added thereto to adjust the final concentration of DMSO to 0.1% of DMSO, and the cells were cultured for 7 days. After the cultivation, the cell viability was calculated with PrestoBlue™ Cell Viability Reagent (Invitrogen, A13261). The IC50 value was calculated from a survival curve, that corresponds to the concentration of the test compound at which the cell proliferation inhibition rate is 50%.

A short description of series [2]: Test 4: pharmacokinetic study, oral, mouse. The note with it: for AUC(0-t): male, NOD.CB17-Prkdcscid/J, plasma, po, 100 mg/kg; for compound-exposure in plasma (in words): summary of Test 4 table, oral 100 mg/kg.
Experimental: Test 4: Pharmacokinetic Study
(§6) The test compound suspended in 0.5% methylcellulose was orally administered to 7-week-old male NOD. CB17-Prkdcscid/J mouse in a dose of 100 mg/kg. The blood sample was taken from jugular vein without anesthesia over time for 24 hours. The blood sample was centrifuged to obtain plasma. The plasma was pre-treated by methanol extraction method, and then analyzed with an LC-MS/MS to determine the concentration of the test compound. Based on the data from 0 hour after the administration until the time (t) when there was the final detection in the plasma, AUC was calculated by trapezoidal method.
Series [3] has as its system MEIS1. Briefly: Test 3: inhibition of mRNA transcription, MEIS1 in MV4;11 cells. In kind it is cell-based. The following applies: for mRNA at 1 μM (% control) MEIS1: MV4;11 cells, 20 to 24 hours, fitted with GAPDH; for mRNA transcription inhibition activity (in words): summary of Test 3 table, MEIS1 and HOXA9, MV4;11 cells, 1 μM. The procedure:
(§4) Test 3: Test for the Inhibition of mRNA Transcription with Test Compounds
(§5) MV4; 11 cells were obtained from American Type Culture Collection (ATCC). The cells were cultured at 37° C. in the presence of 5% CO2 in RPMI 1640 medium containing 10% fetal bovine serum and 1% penicillin/streptomycin. To the MV4; 11 cells was added each test compound to adjust the final concentration to 1 μmol/L, and the cells were cultured at 37° C. in the presence of 5% CO2 for 20 to 24 hours. After the incubation, the total RNA was extracted from the cells with RNeasy™ Mini Kit (QIAGEN, 74106), and CDNA was synthesized with Superscript™ VILO™ CDNA Synthesis Kit (Invitrogen, #11754250). By using TaqMan™ Gene Expression Master Mix (Applied Biosystems, 4369016) and TaqMan™ probe (Applied Biosystems), the expression level of mRNA was quantified from the obtained cDNA with 7900HT (Applied Biosystems). The mRNA expression level of each obtained gene was fitted with the expression level of mRNA of GAPDH.

Series [4] relates to HOXA9. Briefly: Test 3: inhibition of mRNA transcription, HOXA9 in MV4;11 cells. In kind it is cell-based. The note with it: 20 to 24 hours, fitted with GAPDH. How it is done:
as §4, §5

Series [5] concerns MOLM-13 cells. Briefly: Test 2: inhibition of cell proliferation, MOLM-13. It counts as cell-based. The note with it: Homo sapiens, 168 h, 7 days, PrestoBlue cell viability. How it is done:
as §1, §2, §3

Series [6] has as its target T1, Menin-MLL binding (His-Menin1-615 and MLL1-172-FLAG) (Homo sapiens, UniProt O00255).
T1 construct: Menin1-615 wherein 6× His tag and HA tag are inserted in the N-terminus; HA (N); myc (C)
T1 sequence (O00255 1-615 isoform O00255-1): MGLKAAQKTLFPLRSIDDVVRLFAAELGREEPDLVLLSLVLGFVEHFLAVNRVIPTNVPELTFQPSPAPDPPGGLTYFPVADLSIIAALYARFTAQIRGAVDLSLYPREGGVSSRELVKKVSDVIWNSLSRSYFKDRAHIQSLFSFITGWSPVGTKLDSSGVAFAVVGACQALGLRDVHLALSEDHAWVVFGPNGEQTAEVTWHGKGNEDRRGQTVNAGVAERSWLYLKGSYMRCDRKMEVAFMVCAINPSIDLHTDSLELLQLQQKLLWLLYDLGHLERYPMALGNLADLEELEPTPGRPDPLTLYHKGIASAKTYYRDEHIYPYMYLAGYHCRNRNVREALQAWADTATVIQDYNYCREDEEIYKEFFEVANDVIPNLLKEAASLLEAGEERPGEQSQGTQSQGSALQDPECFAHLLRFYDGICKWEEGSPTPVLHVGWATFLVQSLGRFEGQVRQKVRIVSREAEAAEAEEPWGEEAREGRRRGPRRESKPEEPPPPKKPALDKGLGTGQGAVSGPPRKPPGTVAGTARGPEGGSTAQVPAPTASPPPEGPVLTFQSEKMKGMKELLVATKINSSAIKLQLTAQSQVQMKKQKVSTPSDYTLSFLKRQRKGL
Briefly: Test 1: inhibition of the menin-MLL binding (HTRF). The following applies: for IC50: His-Menin1-615 30 nmol/L, MLL1-172-FLAG 50 nmol/L; for menin-MLL binding inhibition activity (in words): summary of Test 1 table. How it is done: Test 1: Test for Evaluating the Inhibition of the Menin-MLL Binding
Menin1-615 wherein 6× His tag and HA tag are inserted in the N-terminus, and myc tag is inserted in the C-terminus (hereinafter, referred to as His-Menin1-615), was diluted with an assay buffer (25 mmol/L HEPES, 150 mmol/L NaCl, 1 mmol/L dithiothreitol, 0.5% (w/v) Tween 80, 0.3% (w/v) BSA, 0.3% (w/v) skim milk) to adjust the final concentration to 30 nmol/L. The test compounds were also diluted with the assay buffer to adjust each concentration of the test compounds to 0.005 to 5 μmol/L. The prepared His-Menin1-615 and test compounds were added to a light-shielding 384-well low-volume plate (Corning, #4514) in 2 μL/well and […], respectively, and the plate was covered with a lid for light-shielding (Corning, #3935), and incubated at room temperature for 3 hours. After the incubation, MLL1-172 wherein FLAG tag is inserted in the C-terminus (MLL1-172-FLAG), was separately diluted with the assay buffer to adjust the final concentration to 50 nmol/L. The prepared MLL1-172-FLAG was added to the above plate in 2 μL/well, and the plate was covered with a lid for light-shielding and incubated at room temperature for an hour.
Then, anti-6HIS-d2 antibody (cisbio, 61HISDLA) and anti-FLAGM2-K antibody (cisbio, 61FG2KLA) were diluted with an antibody dilution buffer (50 mmol/L Tris, 150 mmol/L NaCl, 800 mmol/L KF, pH 7.4) to adjust the final concentration to 1.4 μg/mL to prepare an antibody mixture. The prepared antibody mixture was added to the above plate in 10 μL/well, and the plate was covered with a lid and incubated at 4° C. for 17 to 24 hours. After the incubation, the signal was detected with RUBYstar (BMG LABTECH).

The conditions of series [7]: mouse, in vivo, po, 100 mg/kg.
Experimental: Test 4: Pharmacokinetic Study
as §6

Read-outs that look alike come from different tables or passages of the source.

What is called IC50 is the midpoint of a concentration-inhibition curve. A lower IC50 goes with greater potency. A word on the AUC(0-t): it is exposure summed from dosing to a finite time, without extrapolation to infinity.

Turning to `O=C([C@H]1N[C@H]2CC[C@@H]1C[C@@H]2CC1CC1)N1CC2(C1)CN(c1c(C(F)(F)F)cnc3sc(CC(F)(F)F)cc13)C2` [Example 1, [(1S,3S,4R,6S)-6-(Cyclopropylmethyl)-2-azabicyclo[2.2.2]octan-3-yl]{6-[2-(2,2,2-trifluoroethyl)-5-(trifluoromethyl)thieno[2,3-b]pyridin-4-yl]-2,6-diazaspiro[3.3]heptan-2-yl}methanone], in series [1], the IC50 was determined as 90 nM; the “cell proliferation inhibition activity, good (in words)” value (shortened to “cell proliferation inhibition activity”) is reported as “good cell proliferation inhibition activity”; the “cell proliferation inhibitory activity, potent (in words)” value (from here on “cell proliferation inhibitory activity”) is “potent cell proliferation inhibitory activity”. In addition, in series [2], the AUC(0-t) came out at 10300 ng·h/mL and the “compound-exposure in plasma (in words)” value was “good compound-exposure in plasma”. Also, in series [3], the “mRNA at 1 μM (% control) MEIS1” value turned out to be 31.8 % control and the “mRNA transcription inhibition activity (in words)” value is given as “mRNA transcription inhibition activity”. In addition, the “mRNA at 1 μM (% control) HOXA9” value in series [4] worked out at 55.0 % control. The IC50 in series [5] came out at 280 nM. Further, in series [6], the IC50 is 36.5 nM and the “menin-MLL binding inhibition activity (in words)” value is “potent menin-MLL binding inhibition activity”.
For the compound `O=C([C@H]1N[C@H]2CC[C@@H]1[C@H](F)[C@@H]2CC1CC1)N1CC2(C1)CN(c1c(C(F)(F)F)cnc3sc(CC(F)(F)F)cc13)C2` [Example 11, [(1S,3S,4S,5R,6R)-6-(cyclopropylmethyl)-5-fluoro-2-azabicyclo[2.2.2]octan-3-yl]{6-[2-(2,2,2-trifluoroethyl)-5-(trifluoromethyl)thieno[2,3-b]pyridin-4-yl]-2,6-diazaspiro[3.3]heptan-2-yl}methanone], in series [1], the IC50 stood at 80 nM; the “cell proliferation inhibition activity” value is listed as “good cell proliferation inhibition activity”; the “cell proliferation inhibitory activity” value was “potent cell proliferation inhibitory activity”. Also, in series [2], the exposure AUC(0-t) is 6740 ng·h/mL and the “compound-exposure in plasma (in words)” value was “good compound-exposure in plasma”. In addition, in series [3], the “mRNA at 1 μM (% control) MEIS1” value came to 20.6 % control and the “mRNA transcription inhibition activity (in words)” value is “mRNA transcription inhibition activity”. Besides, in series [4], the “mRNA at 1 μM (% control) HOXA9” value was 45.0 % control. Half-maximal inhibition in series [5] (IC50) was put at 150 nM. Further, in series [6], the half-maximal inhibitory concentration (IC50) amounted to 18.8 nM and the “menin-MLL binding inhibition activity (in words)” value was “potent menin-MLL binding inhibition activity”.
On to `N#Cc1cnc2sc(CC(F)(F)F)cc2c1N1CC2(CN(C(=O)[C@H]3N[C@H]4CC[C@@H]3[C@H](F)[C@@H]4CC3CC3)C2)C1` [Example 12, 4-{6-[(1S,3S,4S,5R,6R)-6-(cyclopropylmethyl)-5-fluoro-2-azabicyclo[2.2.2]octane-3-carbonyl]-2,6-diazaspiro[3.3]heptan-2-yl}-2-(2,2,2-trifluoroethyl)thieno[2,3-b]pyridine-5-carbonitrile], for which the half-maximal inhibitory concentration (IC50) was determined as 60 nM in series [1], 90 nM in series [5] and 7.3 nM in series [6]. This compound registered an AUC(0-t) in series [2] of 8970 ng·h/mL. The “compound-exposure in plasma (in words)” value in series [2] is “good compound-exposure in plasma”. For the same compound, the “mRNA at 1 μM (% control) MEIS1” value in series [3] worked out at 18.4 % control. In addition, the “mRNA at 1 μM (% control) HOXA9” value in series [4] amounted to 42.6 % control.
On to `O=C([C@H]1N[C@H]2CC[C@@H]1[C@@H](F)[C@H]2CC1CC1)N1CC2(C1)CN(c1c(C(F)(F)F)cnc3sc(CC(F)(F)F)cc13)C2` [Example 13, [(1S,3S,4S,5S,6S)-6-(cyclopropylmethyl)-5-fluoro-2-azabicyclo[2.2.2]octan-3-yl]{6-[2-(2,2,2-trifluoroethyl)-5-(trifluoromethyl)thieno[2,3-b]pyridin-4-yl]-2,6-diazaspiro[3.3]heptan-2-yl}methanone], for which, in series [1], the IC50 was determined as 440 nM and the “cell proliferation inhibition activity” value is “good cell proliferation inhibition activity”. In addition, in series [3], the “mRNA at 1 μM (% control) MEIS1” value was 39.6 % control and the “mRNA transcription inhibition activity (in words)” value is “mRNA transcription inhibition activity”. Also, in series [4], the “mRNA at 1 μM (% control) HOXA9” value was 45.4 % control. For the same compound, in series [5], inhibition was half-maximal at 690 nM (IC50). Further, the concentration for half-maximal inhibition (IC50) in series [6] amounted to 54.2 nM.
Regarding `N#Cc1cnc2sc(CC(F)(F)F)cc2c1N1CC2(CN(C(=O)[C@H]3N[C@H]4CC[C@@H]3[C@@H](F)[C@H]4CC3CC3)C2)C1` [Example 14, 4-{6-[(1S,3S,4S,5S,6S)-6-(cyclopropylmethyl)-5-fluoro-2-azabicyclo[2.2.2]octane-3-carbonyl]-2,6-diazaspiro[3.3]heptan-2-yl}-2-(2,2,2-trifluoroethyl)thieno[2,3-b]pyridine-5-carbonitrile], in series [1], the midpoint of inhibition, the IC50, lay at 260 nM and the “cell proliferation inhibition activity” value is recorded as “good cell proliferation inhibition activity”. In series [3], the “mRNA at 1 μM (% control) MEIS1” value is 38.5 % control and the “mRNA transcription inhibition activity (in words)” value was “mRNA transcription inhibition activity”. The “mRNA at 1 μM (% control) HOXA9” value in series [4] is given as 51.4 % control. The midpoint of inhibition in series [5], the IC50, lay at 550 nM. In series [6], the IC50 turned out to be 21.7 nM and the “menin-MLL binding inhibition activity (in words)” value is given as “potent menin-MLL binding inhibition activity”.
With `[2H]C([2H])=C1C[C@@H]2CC[C@H]1[C@@H](C(=O)N1CCC3(CC1)CN(c1c(C(F)(F)F)cnc4sc(CC(F)(F)F)cc14)C3)N2` [Example 21, [(1S,3S,4R)-5-(^2H2)methylidene-2-azabicyclo[2.2.2]octan-3-yl]{2-[2-(2,2,2-trifluoroethyl)-5-(trifluoromethyl)thieno[2,3-b]pyridin-4-yl]-2,7-diazaspiro[3.5]nonan-7-yl}methanone], in series [1], the “cell proliferation inhibition activity” value is recorded as “good cell proliferation inhibition activity” and the “cell proliferation inhibitory activity” value is recorded as “potent cell proliferation inhibitory activity”. In series [7], the exposure AUC(0-t) was found to be 24300 ng·h/mL and the “compound-exposure in plasma (in words)” value is listed as “good compound-exposure in plasma”.

(Values after patent publication US12662494B2, “Optically active bridged piperidine derivative” (Sumitomo Pharma Co., Ltd., priority 2018, dated 2026).)
